This test has as its system Male Wistar rats. The test can be described thus: Locomotor activity and learning in maze paradigm (escape from 1.5 mA shock area), i.c.v. injection. The test is classed as in vivo. As for the experimental part:
The animals had to learn to escape from the shock area in order to avoid a continuous 1.5 mA electric shock. Experimental time --30 minutes.
The rats were treated intracerebroventricularly with SS-14 (1 mcg) and GRF1-44 (1 mcg) and their behavior was automatically recorded by computer using the maze paradigm shown in FIG. 1. p/t denotes pulses per time unit (minute). Locomotor activity was quantified in pulses per minute or cm^2 /min. Total inputs (I/O) in neutral position (white bars) and shock position (black bars) denote how many times the animals enter neutral and shock areas. The N/S ratio results from dividing I/O in neutral position by I/O in shock position and is interpreted as an index of learning in the 30-minute experimental period. The positional time (seconds) represents how long the animals stay in neutral (white bars) or shock (black bars) areas. N-sp and S-sp (in seconds) indicate the time-latency per movement or input in neutral (white bars) and shock (black bars) areas, respectively.
To clarify whether SS and GRF display at the central level the same antagonistic effect that they have at the pituitary level, the effects of these neuropeptides on several behavioral parameters have been studied using the OUCEM-86^TM (Osaka University Computerized Electronic Maze). The system is integrated by the following components: a Programmable Electronic Platform (PEP) (620×620 mm) equipped with 48 photo beam sensors (OPX-T30); a Programming Panel (PP) (Model BECM-0064) for paradigm stimulation; a Shock Generator Scrambler (SGS) (Model BSG-1065) to apply continuous or discontinuous electric current to the PEP; a Control Station (CS) (BEC 16-Bio Computer Control Station BCS-1105; Bio Medica, Ltd., Osaka) which processes inputs/outputs as an interface device to automatically computerize behavioral parameters; and a Computer System (NEC PC-9801 VM2) with 1 megabyte Random Access Memory (RAM) for data processing and experimental setting.
Male Wistar rats (175-200 g) (N =5-8 rats/group) received intracerebroventricular (i.c.v.) injections of GRF1-44 and SS-14 over a range of 0.1 to 10 mcg. Then the rats were studied in the OUCEM under two different paradigms (e.g., open field and maze paradigms).
The amount of inputs (I/O) induced by SS was 103.5±29.5 (control =216.25±55.19, t=8.49, p<0.005) in the neutral area (NA) and 77.14±13.5 I/O in the shock area (SA) (control =298±40, t=1.26, n.s.). GRF generated 459.35±32.5 I/O in NA (t=18.13, p<0.005) and 340.5±63.5 I/O in SA (t=9.07, p<0.005) (FIGS. 1C,3). The NA/SA (N/S) ratios for control, SS- and GRF-treated rats were 0.72, 1.33, and 1.35, respectively (FIG. 2).

One substance from patent US4939124A, “Treatment and diagnosis of dementia” (Laboratorios Serono S.A., priority 1988, dated 1990) can be followed below.

For the substance growth hormone releasing factor [GRF], the “locomotor activity (LA), maze paradigm” value (1 mcg i.c.v., 30 minutes, control 17.12±5.42 pm) stood at 26.66±3.15 pm. Moreover, the “NA/SA (N/S) ratio (index of learning)” value (1 mcg i.c.v., control 0.72) is reported as 1.35. In addition, the “amount of inputs (I/O) in the neutral area (NA)” value (1 mcg i.c.v., control 216.25±55.19) is given as 459.35±32.5 I/O. For the same substance, the “amount of inputs (I/O) in the shock area (SA)” value (1 mcg i.c.v., control 298±40) turned out to be 340.5±63.5 I/O. In addition, the “I/O rate and positional time in SA” value (GRF i.c.v., hyperkinetic syndrome, vs control group) is reported as “significantly higher than in the control group”. Moreover, for the setting “doses of approximately 6.10×10^-10 mol (SS) and 1.98×10^-10 mol (GRF), i.c.v.”, the “learning abilities (N/S ratio as index)” value was “improve learning abilities”.
